This assay relates to HT29 cells. Nature of the assay: Inhibition of cell necrosis (CCK8 method), induced programmed necrosis of HT29 cells. Format: cell-based. Conditions: Homo sapiens, HT-29; rescue from necrosis induced by TNF-α 20 ng/mL, AT-406 1 μM, Z-VAD-FMK 20 μM; 16-20 hours; CCK-8, OD 450 nm. Put shortly: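 HT29 cells in McCOY's 5A with 10% FBS were pre-treated for 30 min with compound (9 fourfold steps, 25000 to 0.38 nM final, 0.25% DMSO). Necrosis was then induced with TNF-α 20 ng/mL, AT-406 1 μM and Z-VAD-FMK 20 μM for 16-20 h. Viability was read by CCK-8 OD450, normalized between uninduced and induced wells, and IC50 was curve-fitted.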
A general note: Tetrazolium assays rely on reduction of a dye to a coloured formazan, in cell work by metabolically active cells.

This is an account of results in patent US12435060B2, “Acylamino bridged heterocyclic compound, and composition and application thereof” (BEIJING SCITECH-MQ PHARMACEUTICALS LIMITED, priority 2019, dated 2025).

Each structure is given as a SMILES string. A value given as a limit tells only on which side of the number the result lay.

Molecule `COCCCOc1ccc(Cl)c(-c2ccnc(NC(=O)c3nnc(CC4CCCC4)[nH]3)c2)c1` [Example 397, N-(4-(2-chloro-5-(3-methoxypropoxy)phenyl)pyridin-2-yl)-5-(cyclopentylmethyl)-4H-1,2,4-triazole-3-carboxamide] had an IC50 of at most 100 nM.

Consider `COCCCOc1ccc(Cl)c(-c2ccnc(NC(=O)c3nnc(CC4CCCCC4)[nH]3)c2)c1` [Example 398, N-(4-(2-chloro-5-(3-methoxypropoxy)phenyl)pyridin-2-yl)-5-(cyclohexylmethyl)-4H-1,2,4-triazole-3-carboxamide], for which the IC50 was at most 100 nM.

On to `O=C(Nc1cc(-c2cc(OCC3CCOCC3)ccc2Cl)ccn1)c1nnc(Cc2ccccc2)[nH]1` [Example 399, 5-benzyl-N-(4-(2-chloro-5-((tetrahydro-2H-pyran-4-yl)methoxy)phenyl)pyridin-2-yl)-4H-1,2,4-triazole-3-carboxamide], for which the IC50 is at most 100 nM.

In turn, `O=C(Nc1cc(-c2cc(OCC3CCOCC3)ccc2Cl)ccn1)c1nnc(Cc2ccccc2F)[nH]1` [Example 400, 5-(2-fluorobenzyl)-N-(4-(2-chloro-5-((tetrahydro-2H-pyran-4-yl)methoxy)phenyl)pyridin-2-yl)-4H-1,2,4-triazole-3-carboxamide] had an IC50 of at most 100 nM.

Regarding `O=C(Nc1cc(-c2cc(OCC3CCOCC3)ccc2Cl)ccn1)c1nnc(CC2CCCC2)[nH]1` [Example 401, N-(4-(2-chloro-5-((tetrahydro-2H-pyran-4-yl)methoxy)phenyl)pyridin-2-yl)-5-(cyclopentylmethyl)-4H-1,2,4-triazole-3-carboxamide], the IC50 is at most 100 nM.

As for `O=C(Nc1cc(-c2cc(OCC3CCOCC3)ccc2Cl)ccn1)c1nnc(CC2CCCCC2)[nH]1` [Example 402, N-(4-(2-chloro-5-((tetrahydro-2H-pyran-4-yl)methoxy)phenyl)pyridin-2-yl)-5-(cyclohexylmethyl)-4H-1,2,4-triazole-3-carboxamide], the IC50 is at most 100 nM.

As for `O=C(Nc1cc(-c2cc(OCCC3CCOCC3)ccc2Cl)ccn1)c1nnc(Cc2ccccc2)[nH]1` [Example 403, 5-benzyl-N-(4-(2-chloro-5-(2-(tetrahydro-2H-pyran-4-yl)ethoxy)phenyl)pyridin-2-yl)-4H-1,2,4-triazole-3-carboxamide], the IC50 was at most 100 nM.

Turning to `O=C(Nc1cc(-c2cc(OCCC3CCOCC3)ccc2Cl)ccn1)c1nnc(Cc2ccccc2F)[nH]1` [Example 404, N-(4-(2-chloro-5-(2-(tetrahydro-2H-pyran-4-yl)ethoxy)phenyl)pyridin-2-yl)-5-(2-fluorobenzyl)-4H-1,2,4-triazole-3-carboxamide], the IC50 was at most 100 nM.

On to `O=C(Nc1cc(-c2cc(OCCC3CCOCC3)ccc2Cl)ccn1)c1nnc(CC2CCCC2)[nH]1` [Example 405, N-(4-(2-chloro-5-(2-(tetrahydro-2H-pyran-4-yl)ethoxy)phenyl)pyridin-2-yl)-5-(cyclopentylmethyl)-4H-1,2,4-triazole-3-carboxamide], for which the IC50 is at most 100 nM.

In turn, `O=C(Nc1cc(-c2cc(OCCC3CCOCC3)ccc2Cl)ccn1)c1nnc(CC2CCCCC2)[nH]1` [Example 406, N-(4-(2-chloro-5-(2-(tetrahydro-2H-pyran-4-yl)ethoxy)phenyl)pyridin-2-yl)-5-(cyclohexylmethyl)-4H-1,2,4-triazole-3-carboxamide] registered an IC50 of at most 100 nM.

`CC(C)(O)CCCOc1cc(F)c(Cl)c(-c2ccnc(NC(=O)c3nnc(Cc4ccccc4)[nH]3)c2)c1` [Example 407, 5-benzyl-N-(4-(2-chloro-3-fluoro-5-((4-hydroxy-4-methylpentyl)oxy)phenyl)pyridin-2-yl)-4H-1,2,4-triazole-3-carboxamide] yielded an IC50 above 10000 nM.

`CC(C)(O)CCCOc1cc(F)c(Cl)c(-c2ccnc(NC(=O)c3nnc(Cc4ccccc4F)[nH]3)c2)c1` [Example 408, N-(4-(2-chloro-3-fluoro-5-((4-hydroxy-4-methylpentyl)oxy)phenyl)pyridin-2-yl)-5-(2-fluorobenzyl)-4H-1,2,4-triazole-3-carboxamide] returned an IC50 above 10000 nM.

As usually defined, the IC50 is the concentration that inhibits the measured activity by half. Read a low IC50 as inhibition by little substance.
